According to ChEMBL document CHEMBL1201862, “PubChem BioAssay data set” (2004):
The source made the active and inactive calls.

Columns and labels:
[1] = biological target: T1, Short transient receptor potential channel 4 (Mus musculus, UniProt Q9QUQ5); test: TRPC4 inhibitor concentration-response, dose response, cell-based, HEK293 TRPC4/mu-opioid, DAMGO stimulus, Fluo-4 (AID 492994); type: functional
T1 sequence (Q9QUQ5 whole entry): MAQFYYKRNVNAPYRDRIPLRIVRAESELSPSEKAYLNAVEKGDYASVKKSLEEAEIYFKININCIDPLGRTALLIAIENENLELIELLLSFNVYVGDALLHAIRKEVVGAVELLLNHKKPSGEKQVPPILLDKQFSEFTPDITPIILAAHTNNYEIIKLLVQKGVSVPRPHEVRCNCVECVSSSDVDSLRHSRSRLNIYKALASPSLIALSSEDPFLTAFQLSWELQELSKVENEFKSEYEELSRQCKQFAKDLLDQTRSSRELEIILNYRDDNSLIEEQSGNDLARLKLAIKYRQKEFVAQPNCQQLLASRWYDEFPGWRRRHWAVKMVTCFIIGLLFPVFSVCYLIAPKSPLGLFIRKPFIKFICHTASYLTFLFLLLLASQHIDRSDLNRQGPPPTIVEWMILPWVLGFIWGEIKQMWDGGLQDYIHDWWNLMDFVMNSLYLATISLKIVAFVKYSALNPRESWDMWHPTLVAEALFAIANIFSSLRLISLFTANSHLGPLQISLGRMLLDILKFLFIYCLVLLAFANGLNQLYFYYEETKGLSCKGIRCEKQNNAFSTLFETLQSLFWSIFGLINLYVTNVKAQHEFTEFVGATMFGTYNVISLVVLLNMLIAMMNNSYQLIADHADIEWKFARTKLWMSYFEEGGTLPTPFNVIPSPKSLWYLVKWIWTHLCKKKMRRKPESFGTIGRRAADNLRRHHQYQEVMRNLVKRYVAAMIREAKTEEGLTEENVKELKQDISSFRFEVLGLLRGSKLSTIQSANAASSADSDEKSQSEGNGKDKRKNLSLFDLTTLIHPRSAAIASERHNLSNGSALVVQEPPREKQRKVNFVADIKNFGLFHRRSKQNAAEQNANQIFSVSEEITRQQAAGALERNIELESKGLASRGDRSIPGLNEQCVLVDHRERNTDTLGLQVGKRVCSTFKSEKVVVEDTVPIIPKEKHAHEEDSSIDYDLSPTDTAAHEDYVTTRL

[2] = biological target: T1, Short transient receptor potential channel 4; test: SAR Analysis for the identification of selective inhibits of the transient receptor potential cation channel C4 (TRPC4): Automated Electrophysiology_2. [Related pubchem assays (depositor defined):AID2256]; type: functional
[3] = Fluorescence polarization-based biochemical high throughput dose response assay for activators of the Protein Kinase A-R2B (PKA-R2B) complex. [Related pubchem assays (depositor defined):AID504700, AID504704, AID504796, AID504797]
[4] = activation of PKA-R1A holoenzyme dissociation, dose response, counter-screen for PKA-R2B activator project, biochemical, Cy5-IP20 fluorescence polarization, 1536-well, triplicate (AID 504896)
NIH3T3 = test: cytotoxicity in NIH-3T3 fibroblasts, dose response, cytotoxicity control for antifungal drug resistance project, cell-based, Alamar Blue, fluconazole, dry powder (AID 488809); type: functional; conditions: Mus musculus
Jurkat = test: SAR Analysis of small molecule inhibitors of T-cell specific antigen receptor-induced NF-kB activation in a Jurkat cell line using a luminescence assay - Set 2. [Related pubchem assays (depositor defined):AID435003, AID435012, AID465]; type: functional, cell-based; conditions: Homo sapiens
HEK293 [5] = test: SAR Analysis of small molecule inhibitors of T-cell specific antigen receptor-induced NF-kB activation in a HEK-293T cell line using a luminescence assay - Set 2. [Related pubchem assays (depositor defined):AID435003, AID435012, AID489026]; type: functional, cell-based; conditions: Homo sapiens
HEK293 [6] = test: cytotoxicity in HEK293T NF-kB-Luc cells, SAR follow-up, cytotoxicity control for NF-kB activator project, cell-based, resazurin fluorescence (AID 493251); type: functional; conditions: Homo sapiens
[7] = growth induction of Burl-1 ts yeast mutant, dose response, counter-screen for SUMOylation pathway inhibitor project, whole organism, S. cerevisiae, luminescence (AID 463199); type: functional
Cytochrome P450 2C9 = Cytochrome P450 2C9 (Homo sapiens, UniProt P11712)
Chain of Cytochrome P450 2C9 (P11712 whole entry): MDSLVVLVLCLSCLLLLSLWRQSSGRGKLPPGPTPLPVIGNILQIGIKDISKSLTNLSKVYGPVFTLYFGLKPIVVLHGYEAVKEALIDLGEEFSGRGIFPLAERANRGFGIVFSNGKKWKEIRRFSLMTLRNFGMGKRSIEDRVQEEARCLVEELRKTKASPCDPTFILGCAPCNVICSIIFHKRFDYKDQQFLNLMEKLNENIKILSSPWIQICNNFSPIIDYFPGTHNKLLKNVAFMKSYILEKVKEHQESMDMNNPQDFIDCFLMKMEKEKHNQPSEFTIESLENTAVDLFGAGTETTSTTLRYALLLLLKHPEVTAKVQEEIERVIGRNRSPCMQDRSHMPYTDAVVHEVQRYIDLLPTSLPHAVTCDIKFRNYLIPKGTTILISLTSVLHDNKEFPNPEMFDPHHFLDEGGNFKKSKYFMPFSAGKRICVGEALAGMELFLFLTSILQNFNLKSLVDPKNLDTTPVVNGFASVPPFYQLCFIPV

Cytochrome P450 2D6 = Cytochrome P450 2D6 (Homo sapiens, UniProt P10635);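 further: CYP2D6 member of a cytochrome P450 panel assay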
Chain of Cytochrome P450 2D6 (P10635 whole entry): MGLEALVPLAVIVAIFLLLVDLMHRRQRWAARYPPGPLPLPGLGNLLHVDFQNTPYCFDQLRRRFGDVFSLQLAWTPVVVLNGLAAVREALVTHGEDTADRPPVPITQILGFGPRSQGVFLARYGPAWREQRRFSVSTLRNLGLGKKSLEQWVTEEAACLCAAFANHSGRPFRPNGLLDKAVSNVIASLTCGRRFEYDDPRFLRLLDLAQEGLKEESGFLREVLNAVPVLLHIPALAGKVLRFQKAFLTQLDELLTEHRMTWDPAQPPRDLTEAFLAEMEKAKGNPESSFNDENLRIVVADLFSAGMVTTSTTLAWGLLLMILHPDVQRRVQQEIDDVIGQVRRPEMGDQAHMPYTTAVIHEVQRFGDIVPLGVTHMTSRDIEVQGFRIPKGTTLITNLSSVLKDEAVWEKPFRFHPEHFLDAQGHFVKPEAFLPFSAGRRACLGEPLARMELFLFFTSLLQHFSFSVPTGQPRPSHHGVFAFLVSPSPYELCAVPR

[8] = biological target: T2, Voltage-gated N-type calcium channel alpha-1B subunit/Amyloid beta A4 precursor protein-binding family A member 1 (Homo sapiens, UniProt Q00975+Q02410); test: disruptors of Mint-PDZ/N-type channel peptide interaction – biochemical, HTRF, set 2, SAR follow-up (AID 434980); type: functional
T2 sequence (Q00975 whole entry): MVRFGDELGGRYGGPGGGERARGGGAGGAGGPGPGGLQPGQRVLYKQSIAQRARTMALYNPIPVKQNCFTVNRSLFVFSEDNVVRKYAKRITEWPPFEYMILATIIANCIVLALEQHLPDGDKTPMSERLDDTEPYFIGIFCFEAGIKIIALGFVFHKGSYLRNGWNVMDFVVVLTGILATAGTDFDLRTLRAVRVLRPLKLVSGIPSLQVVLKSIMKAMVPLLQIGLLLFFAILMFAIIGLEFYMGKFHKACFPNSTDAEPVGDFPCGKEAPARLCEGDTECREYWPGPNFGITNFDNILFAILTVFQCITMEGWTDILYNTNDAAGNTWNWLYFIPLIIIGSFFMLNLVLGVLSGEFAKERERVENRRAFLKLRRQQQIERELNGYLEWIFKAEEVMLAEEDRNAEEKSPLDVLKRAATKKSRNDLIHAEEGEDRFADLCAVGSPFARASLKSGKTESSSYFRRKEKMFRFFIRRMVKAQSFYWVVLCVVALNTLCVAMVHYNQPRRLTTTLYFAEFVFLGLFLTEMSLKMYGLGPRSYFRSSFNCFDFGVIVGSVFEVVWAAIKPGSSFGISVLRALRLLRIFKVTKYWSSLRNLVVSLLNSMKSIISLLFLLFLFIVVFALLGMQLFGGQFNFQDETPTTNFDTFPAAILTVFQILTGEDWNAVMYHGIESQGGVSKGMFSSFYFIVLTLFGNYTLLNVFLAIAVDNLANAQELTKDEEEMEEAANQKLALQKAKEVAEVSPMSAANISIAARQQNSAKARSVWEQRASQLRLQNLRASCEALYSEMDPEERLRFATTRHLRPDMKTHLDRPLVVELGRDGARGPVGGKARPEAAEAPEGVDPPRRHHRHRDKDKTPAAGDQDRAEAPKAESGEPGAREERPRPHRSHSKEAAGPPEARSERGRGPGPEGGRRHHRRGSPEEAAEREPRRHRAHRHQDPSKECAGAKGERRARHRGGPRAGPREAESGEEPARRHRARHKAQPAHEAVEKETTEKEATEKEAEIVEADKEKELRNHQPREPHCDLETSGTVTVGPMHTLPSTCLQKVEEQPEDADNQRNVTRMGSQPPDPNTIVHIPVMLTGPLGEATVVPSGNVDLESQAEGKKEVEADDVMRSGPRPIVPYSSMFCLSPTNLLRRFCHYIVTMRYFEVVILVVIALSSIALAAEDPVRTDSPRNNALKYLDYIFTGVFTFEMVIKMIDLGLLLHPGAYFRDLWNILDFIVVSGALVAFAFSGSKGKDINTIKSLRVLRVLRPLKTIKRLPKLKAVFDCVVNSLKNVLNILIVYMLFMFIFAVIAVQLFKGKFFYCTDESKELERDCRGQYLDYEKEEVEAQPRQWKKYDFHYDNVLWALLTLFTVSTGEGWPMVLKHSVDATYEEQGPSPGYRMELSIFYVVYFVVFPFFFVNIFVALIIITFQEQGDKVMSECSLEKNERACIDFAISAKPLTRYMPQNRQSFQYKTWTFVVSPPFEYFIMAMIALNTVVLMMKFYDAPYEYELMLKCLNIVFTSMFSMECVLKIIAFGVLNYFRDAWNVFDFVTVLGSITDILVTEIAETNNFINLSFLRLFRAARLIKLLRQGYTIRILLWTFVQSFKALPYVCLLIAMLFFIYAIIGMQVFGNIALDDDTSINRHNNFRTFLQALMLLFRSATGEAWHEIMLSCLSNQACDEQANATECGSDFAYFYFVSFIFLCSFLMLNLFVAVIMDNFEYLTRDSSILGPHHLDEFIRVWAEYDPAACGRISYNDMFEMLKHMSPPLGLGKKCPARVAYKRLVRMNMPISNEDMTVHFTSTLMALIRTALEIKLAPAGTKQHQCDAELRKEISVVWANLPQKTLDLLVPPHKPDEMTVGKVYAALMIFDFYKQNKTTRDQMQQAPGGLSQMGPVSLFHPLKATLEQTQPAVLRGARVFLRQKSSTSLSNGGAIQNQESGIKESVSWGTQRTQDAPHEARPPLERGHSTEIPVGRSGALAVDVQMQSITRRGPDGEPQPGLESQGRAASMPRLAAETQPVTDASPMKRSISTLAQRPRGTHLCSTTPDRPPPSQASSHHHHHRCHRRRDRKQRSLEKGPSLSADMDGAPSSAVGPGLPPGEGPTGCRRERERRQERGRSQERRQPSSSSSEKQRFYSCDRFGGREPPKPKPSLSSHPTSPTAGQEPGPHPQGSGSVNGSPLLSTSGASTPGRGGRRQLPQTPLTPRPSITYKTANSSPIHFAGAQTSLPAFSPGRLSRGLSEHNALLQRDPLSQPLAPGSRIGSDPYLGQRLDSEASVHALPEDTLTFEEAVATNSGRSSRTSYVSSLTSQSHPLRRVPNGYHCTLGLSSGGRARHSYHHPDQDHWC
T2 sequence (Q02410 whole entry): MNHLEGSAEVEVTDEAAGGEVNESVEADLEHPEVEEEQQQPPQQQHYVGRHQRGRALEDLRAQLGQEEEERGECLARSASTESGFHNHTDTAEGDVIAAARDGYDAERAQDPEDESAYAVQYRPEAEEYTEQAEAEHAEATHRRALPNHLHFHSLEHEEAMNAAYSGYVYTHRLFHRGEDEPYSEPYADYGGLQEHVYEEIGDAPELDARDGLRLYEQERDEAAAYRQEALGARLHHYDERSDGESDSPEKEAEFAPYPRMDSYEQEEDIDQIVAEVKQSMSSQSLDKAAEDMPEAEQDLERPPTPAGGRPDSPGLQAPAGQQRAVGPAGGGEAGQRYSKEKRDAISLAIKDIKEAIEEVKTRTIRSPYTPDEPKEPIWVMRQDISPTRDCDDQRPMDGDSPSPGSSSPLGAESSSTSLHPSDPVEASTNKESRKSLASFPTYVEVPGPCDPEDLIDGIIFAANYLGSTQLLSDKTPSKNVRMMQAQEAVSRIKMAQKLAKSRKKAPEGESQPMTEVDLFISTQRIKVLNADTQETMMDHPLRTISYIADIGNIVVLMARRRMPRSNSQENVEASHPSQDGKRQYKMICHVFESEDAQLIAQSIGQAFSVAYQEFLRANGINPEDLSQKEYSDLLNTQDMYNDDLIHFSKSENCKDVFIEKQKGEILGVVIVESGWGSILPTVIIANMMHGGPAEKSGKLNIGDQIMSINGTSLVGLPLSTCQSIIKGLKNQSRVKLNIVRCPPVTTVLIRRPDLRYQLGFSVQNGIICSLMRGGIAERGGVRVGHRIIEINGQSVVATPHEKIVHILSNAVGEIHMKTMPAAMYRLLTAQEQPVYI

SUMO E1/E2 = SUMO E1/E2 (Homo sapiens, UniProt P63279+Q9UBE0+Q9UBT2); test: SAR analysis of SUMOylation using HTRF in an in-Vitro dose response assay. [Related pubchem assays (depositor defined):AID2006, AID2011, AID2018, AID2069, AID2658]; type: functional
[9] = biological target: T2, Voltage-gated N-type calcium channel alpha-1B subunit/Amyloid beta A4 precursor protein-binding family A member 1; test: disruptors of Mint-PDZ/N-type channel peptide interaction – biochemical, HTRF, SAR follow-up (AID 2489); type: functional
[10] = biological target: Intestinal-type alkaline phosphatase (Mus musculus, UniProt P24822); test: PubChem AID 488874; type: functional
[11] = biological target: T3, Alkaline phosphatase, tissue-nonspecific isozyme (Homo sapiens, UniProt P05186); test: inhibition of tissue-nonspecific alkaline phosphatase – biochemical, dose response (AID 488882); type: functional
T3 sequence (P05186 whole entry): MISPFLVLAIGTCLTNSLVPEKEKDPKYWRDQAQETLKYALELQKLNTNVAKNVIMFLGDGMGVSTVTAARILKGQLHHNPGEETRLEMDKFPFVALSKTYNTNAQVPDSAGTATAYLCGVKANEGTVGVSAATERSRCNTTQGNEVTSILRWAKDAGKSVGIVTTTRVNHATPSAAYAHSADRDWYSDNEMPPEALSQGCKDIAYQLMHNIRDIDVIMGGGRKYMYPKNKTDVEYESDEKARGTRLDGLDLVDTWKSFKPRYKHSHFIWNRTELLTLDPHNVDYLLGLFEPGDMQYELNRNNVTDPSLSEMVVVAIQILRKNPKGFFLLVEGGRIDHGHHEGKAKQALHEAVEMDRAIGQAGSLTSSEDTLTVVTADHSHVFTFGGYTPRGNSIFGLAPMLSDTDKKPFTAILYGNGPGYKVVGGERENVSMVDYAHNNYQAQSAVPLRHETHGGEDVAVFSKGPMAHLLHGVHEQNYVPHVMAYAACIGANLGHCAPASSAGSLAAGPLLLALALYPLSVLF

[12] = biological target: T4, Intestinal-type alkaline phosphatase (Homo sapiens, UniProt P09923); test: human IAP inhibitors, dose response, biochemical, luminescent, uHTS hits, set 2 (AID 488793); type: functional
T4 sequence (P09923 whole entry): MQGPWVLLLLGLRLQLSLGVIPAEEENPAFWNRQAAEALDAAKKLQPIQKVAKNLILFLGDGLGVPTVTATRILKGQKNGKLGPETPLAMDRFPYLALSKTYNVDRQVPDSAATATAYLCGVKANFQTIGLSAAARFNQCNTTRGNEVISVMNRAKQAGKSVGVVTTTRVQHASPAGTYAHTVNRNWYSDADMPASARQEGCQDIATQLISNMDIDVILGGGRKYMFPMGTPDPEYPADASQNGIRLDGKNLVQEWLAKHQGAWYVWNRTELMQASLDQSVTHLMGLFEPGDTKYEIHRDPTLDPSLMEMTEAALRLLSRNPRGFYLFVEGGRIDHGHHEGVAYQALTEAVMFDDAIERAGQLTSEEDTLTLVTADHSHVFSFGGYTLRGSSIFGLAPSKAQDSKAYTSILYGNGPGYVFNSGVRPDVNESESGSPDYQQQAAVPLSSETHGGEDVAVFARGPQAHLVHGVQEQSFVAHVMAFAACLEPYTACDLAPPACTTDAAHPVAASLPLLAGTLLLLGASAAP

Protein skinhead-1 = biological target: T5, Protein skinhead-1 (Caenorhabditis elegans, UniProt P34707); type: functional
T5 sequence (P34707 whole entry): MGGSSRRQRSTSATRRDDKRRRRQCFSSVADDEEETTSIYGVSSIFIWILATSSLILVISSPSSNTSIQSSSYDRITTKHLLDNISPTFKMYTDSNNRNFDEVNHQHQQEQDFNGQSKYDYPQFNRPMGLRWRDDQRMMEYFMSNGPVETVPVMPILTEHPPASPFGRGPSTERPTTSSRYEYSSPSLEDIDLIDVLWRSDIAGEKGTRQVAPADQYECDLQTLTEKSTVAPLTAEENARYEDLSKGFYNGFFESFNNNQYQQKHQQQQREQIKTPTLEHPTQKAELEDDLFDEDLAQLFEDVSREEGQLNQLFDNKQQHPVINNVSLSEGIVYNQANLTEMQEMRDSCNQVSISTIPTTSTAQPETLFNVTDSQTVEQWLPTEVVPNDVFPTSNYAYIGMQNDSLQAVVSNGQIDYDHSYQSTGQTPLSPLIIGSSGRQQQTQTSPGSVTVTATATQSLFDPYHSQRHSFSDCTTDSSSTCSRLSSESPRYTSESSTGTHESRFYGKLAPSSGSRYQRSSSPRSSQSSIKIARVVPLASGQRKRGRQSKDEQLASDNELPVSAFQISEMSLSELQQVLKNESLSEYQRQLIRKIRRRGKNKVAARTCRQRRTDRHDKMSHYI

Protein RecA = biological target: T6, Protein RecA (Mycobacterium tuberculosis, UniProt P9WHJ3); test: Fluorescence Cell-Free Homogeneous Dose Retest to Identify Inhibitors of RecA-Intein Splicing Activity. [Related pubchem assays (depositor defined):AID2097, AID2223, AID489010, AID492950]; type: functional
T6 sequence (P9WHJ3 whole entry): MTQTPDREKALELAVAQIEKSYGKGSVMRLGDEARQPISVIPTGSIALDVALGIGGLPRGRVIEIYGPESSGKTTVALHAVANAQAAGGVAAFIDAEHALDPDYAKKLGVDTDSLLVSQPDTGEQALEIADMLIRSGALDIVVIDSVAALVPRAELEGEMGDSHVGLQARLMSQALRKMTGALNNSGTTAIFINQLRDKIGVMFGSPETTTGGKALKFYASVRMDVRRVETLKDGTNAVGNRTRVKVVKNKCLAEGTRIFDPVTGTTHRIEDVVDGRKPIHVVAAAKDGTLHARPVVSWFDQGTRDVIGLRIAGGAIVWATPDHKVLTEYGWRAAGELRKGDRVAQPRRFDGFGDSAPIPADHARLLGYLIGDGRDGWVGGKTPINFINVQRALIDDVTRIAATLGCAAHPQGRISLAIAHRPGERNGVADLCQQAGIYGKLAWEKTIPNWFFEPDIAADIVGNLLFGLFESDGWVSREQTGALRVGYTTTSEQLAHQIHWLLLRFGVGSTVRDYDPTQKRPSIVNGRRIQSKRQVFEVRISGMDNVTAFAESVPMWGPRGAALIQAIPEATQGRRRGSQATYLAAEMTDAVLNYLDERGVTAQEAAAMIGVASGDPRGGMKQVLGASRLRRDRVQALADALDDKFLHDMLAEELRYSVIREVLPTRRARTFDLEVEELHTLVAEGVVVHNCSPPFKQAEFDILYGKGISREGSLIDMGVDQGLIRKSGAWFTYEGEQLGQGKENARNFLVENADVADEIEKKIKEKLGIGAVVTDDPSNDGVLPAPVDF

Nonstructural protein 1 = Nonstructural protein 1 (Influenza A virus, UniProt Q194T2); type: functional, Influenza A virus (A/California/07/2009(H1N1))
Chain of Nonstructural protein 1 (Q194T2 whole entry): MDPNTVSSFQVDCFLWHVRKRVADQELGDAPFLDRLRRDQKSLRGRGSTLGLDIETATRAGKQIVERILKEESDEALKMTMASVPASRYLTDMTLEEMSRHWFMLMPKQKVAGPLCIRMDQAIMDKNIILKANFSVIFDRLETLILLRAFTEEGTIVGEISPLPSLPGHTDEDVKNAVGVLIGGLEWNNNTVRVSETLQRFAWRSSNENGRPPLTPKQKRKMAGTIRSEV

[13] = biological target: T4, Intestinal-type alkaline phosphatase; test: Dose Response confirmation of uHTS hits from a small molecule inhibitors of human intestinal alkaline phosphatase via a luminescent assay. [Related pubchem assays (depositor defined):AID2544, AID2574]; type: functional
[14] = biological target: T7, Zinc finger protein mex-5 (Caenorhabditis elegans, UniProt Q9XUB2); test: MEX-5/TCR-2 RNA interaction inhibitors, dose response, biochemical, C. elegans, fluorescence polarization (AID 1960)
T7 sequence (Q9XUB2 whole entry): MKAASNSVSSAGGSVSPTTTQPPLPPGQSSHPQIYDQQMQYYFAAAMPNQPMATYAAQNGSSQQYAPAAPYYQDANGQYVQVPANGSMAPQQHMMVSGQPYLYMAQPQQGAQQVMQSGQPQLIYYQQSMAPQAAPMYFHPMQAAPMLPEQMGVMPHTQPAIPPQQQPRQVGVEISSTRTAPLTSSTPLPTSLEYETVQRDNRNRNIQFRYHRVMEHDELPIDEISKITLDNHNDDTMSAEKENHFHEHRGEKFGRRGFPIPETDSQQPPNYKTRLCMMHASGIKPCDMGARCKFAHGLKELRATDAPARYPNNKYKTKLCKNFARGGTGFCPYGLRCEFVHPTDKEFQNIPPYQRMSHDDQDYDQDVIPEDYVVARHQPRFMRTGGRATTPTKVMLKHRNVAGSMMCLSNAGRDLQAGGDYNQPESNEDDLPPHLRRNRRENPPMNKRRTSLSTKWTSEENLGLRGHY

Keap1/Nrf2 = Keap1/Nrf2 (Homo sapiens, UniProt Q14145); test: Keap1-Nrf2 protein-protein interaction inhibitors, dose response, biochemical, fluorescence polarization, cherry-picked samples (AID 588683)
[15] = biological target: T8, RNA-binding protein pos-1 (Caenorhabditis elegans, UniProt G5EF15); test: inhibitors of POS-1/mex-3 RNA binding, dose response, biochemical, fluorescence polarization (AID 1964);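 further: purified POS-1 fused to maltose binding protein made in E. coli; potency of compounds blocking POS-1 binding to fluorescent RNA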
T8 sequence (G5EF15 whole entry): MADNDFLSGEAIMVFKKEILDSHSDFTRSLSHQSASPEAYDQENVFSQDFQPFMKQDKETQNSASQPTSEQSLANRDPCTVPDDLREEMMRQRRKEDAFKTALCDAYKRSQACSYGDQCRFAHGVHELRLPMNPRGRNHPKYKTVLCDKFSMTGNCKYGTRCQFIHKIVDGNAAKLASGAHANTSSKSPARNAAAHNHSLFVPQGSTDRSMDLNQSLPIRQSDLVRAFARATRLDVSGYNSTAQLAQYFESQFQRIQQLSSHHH

Cc1cc(N2CCCC(O)C2)nc2ccccc12 (centres undefined)
IC50 [1]: 7.32 µM (active)
IC50 [2]: 9.4 µM (active)

O=C(O)c1sccc1SCc1ccc(Cl)cc1Cl
EC50 [3]: 66.9 µM (inactive)
EC50 [4]: > 114 µM (inactive)

O=C(Cn1nc(-c2ccccc2)c2ccccc21)N1CCc2ccccc2C1
AC50 (NIH3T3): 34.9 µM (active)

CNC(=O)CCc1nc(-c2ccccc2)no1
IC50 (Jurkat): > 79 µM (inactive)
IC50 (HEK293 [5]): > 80 µM (inactive)
IC50 (HEK293 [6]): > 80 µM (inactive)

O=C1CC(c2cccc(Br)c2)C2=C(COC2=O)N1 (centres undefined)
AC50 [7]: 85 µM (active)

Cc1nn(-c2ccccc2)c(Cl)c1/C=N/NC(=O)c1ccco1
AC50 (Cytochrome P450 2C9): 22.4 µM (inconclusive)
AC50 (Cytochrome P450 2D6): inconclusive

Cc1ccc(CNC(=O)COC(=O)c2cc(-c3ccco3)nc3ccccc23)cc1
IC50 [8]: 12.1 µM (active)
IC50 (SUMO E1/E2): 6.5 µM (active)
IC50 [9]: 18.1 µM (active)

CC1=NN(Cc2ccccc2)C(=O)/C1=C\c1ccc(N(C)C)cc1
IC50 [10]: 35.1 µM (active)
IC50 [11]: 46.7 µM (active)
IC50 [12]: 39.4 µM (active)
IC50 (Protein skinhead-1): > 100 µM (inactive)
EC50 (Protein RecA): > 380 µM (inactive)
IC50 (Nonstructural protein 1): 32.3 µM (active)
IC50 [13]: 16.8 µM (inactive)

Cc1cc(C)c[n+](-c2[n-]c(=O)sc2C=NN=C(S)Nc2ccccc2)c1
EC50 [14]: 9.02 µM (inconclusive)
AC50 (Keap1/Nrf2): 39.6 µM (active)
EC50 [15]: 9.61 µM (active)
